{"source": "patent US20150315188A1", "about": "“COMPOUNDS AND METHODS FOR TREATMENT OF HYPERTENSION” (MEDIVATION TECHNOLOGIES, INC., priority 2012, published 2015)", "key": {"rat hepatocytes": {"system": "rat hepatocytes", "test": "Stability in the presence of rat hepatocytes", "format": "in vitro ADME, Sprague Dawley rat", "settings": "rat hepatocytes, 5 μM, 37° C., average of duplicates; ^a = 0-120 minute time points", "protocol": "(§1) Compounds of the invention were tested for stability in the presence of dog, rat and human hepatocytes over a 4 hour period by LC/MS/MS. The study was performed by Integrated Analytical Solutions, Berkeley, Calif.\n(§2) Reference Standards and Solutions: Compounds of the invention were stored as powders at ambient temperature in a desiccator and protected from light. Reference stock solutions of Compound Nos. 50a, 50b, 79a, 82, 91a and 178d, as 20 mM in DMSO were prepared and subsequently diluted to 2 mM in MeOH to provide working stock solutions (WSS). Unused standard solutions were stored at −20° C.\n(§3) Hepatocyte Preparation: Human (mixed gender), Beagle dog (male) and Sprague Dawley rat (male) cryopreserved hepatocytes were purchased from Life Technologies Corporation. Hepatocytes were removed from liquid nitrogen, quickly thawed in a 37° C. water bath and transferred to Hepatocyte Thawing/Plating Medium (Cryopreserved Hepatocyte Recovery Medium, CHRM, Life Technologies Inc.). The cells were pelleted by slow speed centrifugation (˜100×g, 6 min) and resuspended at a high cell density. Hepatocyte viability was determined by trypan blue exclusion. Hepatocyte incubation medium (Life Technologies, Inc.) was added to generate a cell density of 2.0×10^6 cells/mL.\n(§4) Hepatocyte Incubations for Stability: The 2 mM WSS was diluted 1 in 200 in hepatocyte incubation medium (pH 7.4) to 10 μM. A solution containing control compounds was prepared similarly to contain 10 μM each of dextromethorphan and testosterone. The solutions of test compounds and controls at 10 μM in hepatocyte incubation medium were pre-incubated at 37° C. for 10 min. Aliquots (250 μL) of hepatocyte suspensions (at 2.0×10^6 cells/mL) were transferred to appropriate 48-well plates and pre-incubated at 37° C. for 10 minutes. Metabolism was initiated by adding 250 μL pre-incubated medium (containing test drug) to wells containing cells. A negative control reaction excluding hepatocytes was used to monitor aqueous stability and/or non-specific adsorption. The final reaction mixtures contained 5 μM of test or control compound and 1.0×10^6 cells/mL. All reactions were performed in duplicate and carried at 37° C. in an incubator. Dextromethorphan and testosterone were used as control drugs to verify hepatocyte activity.\n(§5) Aliquots were removed from each metabolism reaction at 0, 0.5, 2 and 4 hours. The reactions were terminated by adding each aliquot to a vessel containing 2× volumes (80 μL) of Internal Standard Solution (acetonitrile containing 50 ng/mL 2-(2,8-dimethyl-3,4-dihydro-1H-pyrido[4,3-b]indol-5(2H)-yl)-1-(pyridin-4-yl)ethanol (ISS1), 50 ng/mL of 2-(2,8-dimethyl-3,4-dihydro-1H-pyrido[4,3-b]indol-5(2H)-yl)-1-(piperidin-1-yl)ethanone (ISS2) and 5 ng/mL diphenhydramine. Terminated reactions were centrifuged at 6000 g for 30 mins at 4° C. to remove the precipitated proteins and cell debris. Following centrifugation, 20 μL of each supernatant was transferred to a deep-well microplate and diluted with 5× volumes (100 μL) of 0.2% formic acid in water. Compound 178d samples were diluted with 5× volumes (100 μL) of 0.1% HFBA in water. Samples were analyzed by LC/MS/MS.\n(§6) Calculation of Metabolism Parameters: Percent remaining was measured by dividing the analyte/IS peak area ratio at the designated sample time by the peak area ratio at time 0. ISS1 served as the IS for Compound No. 178d. ISS2 served as the IS for Compound nos. 50a, 50b, 79a, 82 and 91a. The metabolic half-life (T1/2) was calculated using all time points unless otherwise noted. The T1/2 values were calculated as 0.693/k, where k is the slope of the log analyte/internal standard peak area ratio versus time. Metabolism rate was calculated by dividing the starting concentration of substrate by the concentration of hepatocytes, then dividing by the T1/2 value."}, "human hepatocytes": {"system": "human hepatocytes", "test": "Stability in the presence of human hepatocytes", "format": "in vitro ADME", "settings": "human hepatocytes, 5 μM, 37° C., average of duplicates; ^a = 0-120 minute time points", "protocol": "as §1, §2, §3, §4, §5, §6"}, "dog hepatocytes": {"system": "dog hepatocytes", "test": "Stability in the presence of dog hepatocytes", "format": "in vitro ADME, Beagle dog", "settings": "dog hepatocytes, 5 μM, 37° C., average of duplicates; ^a = 0-120 minute time points", "protocol": "as §1, §2, §3, §4, §5, §6"}}, "note": "Marks after values point to notes of the source that are not given here.", "data": [{"smiles": "Cc1cc2c3c(n(CC(C)(O)c4ccncc4)c2cc1Cl)CCN1CCCC31", "note": "(single isomer, unassigned) [50b]", "values": [{"measurement": "T1/2 Rat", "setting": "rat hepatocytes", "result": ">240", "unit": "min"}, {"measurement": "T1/2 Human", "setting": "human hepatocytes", "result": "82^a min"}, {"measurement": "T1/2 Dog", "setting": "dog hepatocytes", "result": "100^a min"}]}]}
